The test system of one experiment is Noxa mRNA. Put plainly: qPCR of epidermis of irradiated mice. Conditions: oral gavage 40–80 mg/kg twice a day, 10 kJ/m^2 UVB. For orientation: Real-time PCR tracks product formation cycle by cycle.
The next experiment deals with T1, MST1 (STK4) (Homo sapiens, UniProt Q13043).
T1 construct: purchased KINOMEscan (DiscoveRx), San Diego, CA
T1 sequence (Q13043 1-487): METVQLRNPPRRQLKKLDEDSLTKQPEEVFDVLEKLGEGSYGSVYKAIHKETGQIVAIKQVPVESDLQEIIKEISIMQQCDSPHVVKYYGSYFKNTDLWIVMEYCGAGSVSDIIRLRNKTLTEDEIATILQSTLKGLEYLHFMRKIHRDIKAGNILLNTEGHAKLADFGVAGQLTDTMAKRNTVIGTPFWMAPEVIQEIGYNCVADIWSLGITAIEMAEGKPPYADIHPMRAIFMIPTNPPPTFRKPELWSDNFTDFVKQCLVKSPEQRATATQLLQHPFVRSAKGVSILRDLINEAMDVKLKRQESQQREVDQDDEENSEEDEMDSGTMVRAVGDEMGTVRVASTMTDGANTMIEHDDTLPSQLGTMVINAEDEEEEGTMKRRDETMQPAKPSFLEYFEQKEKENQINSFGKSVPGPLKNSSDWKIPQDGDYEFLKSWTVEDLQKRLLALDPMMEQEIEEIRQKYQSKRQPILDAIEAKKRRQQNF
Further details: method as in Tsai et al., 2008. Conditions: ref Tsai et al., 2008; read-out: Published biochemical IC50; cited from earlier work.

Experiment [1] has as its system HRAS^G12V-transformed HaCaT cells (SCR, TKD). Description: Soft agar colony formation. Conditions: 1.0 μM, SCR and TKD cells. Type of experiment: cell-based, human.
The target in the next experiment is T2, MLK3 (MAP3K11) (Homo sapiens, UniProt Q16584).
T2 construct: purchased KINOMEscan (DiscoveRx), San Diego, CA
T2 sequence (Q16584 whole entry): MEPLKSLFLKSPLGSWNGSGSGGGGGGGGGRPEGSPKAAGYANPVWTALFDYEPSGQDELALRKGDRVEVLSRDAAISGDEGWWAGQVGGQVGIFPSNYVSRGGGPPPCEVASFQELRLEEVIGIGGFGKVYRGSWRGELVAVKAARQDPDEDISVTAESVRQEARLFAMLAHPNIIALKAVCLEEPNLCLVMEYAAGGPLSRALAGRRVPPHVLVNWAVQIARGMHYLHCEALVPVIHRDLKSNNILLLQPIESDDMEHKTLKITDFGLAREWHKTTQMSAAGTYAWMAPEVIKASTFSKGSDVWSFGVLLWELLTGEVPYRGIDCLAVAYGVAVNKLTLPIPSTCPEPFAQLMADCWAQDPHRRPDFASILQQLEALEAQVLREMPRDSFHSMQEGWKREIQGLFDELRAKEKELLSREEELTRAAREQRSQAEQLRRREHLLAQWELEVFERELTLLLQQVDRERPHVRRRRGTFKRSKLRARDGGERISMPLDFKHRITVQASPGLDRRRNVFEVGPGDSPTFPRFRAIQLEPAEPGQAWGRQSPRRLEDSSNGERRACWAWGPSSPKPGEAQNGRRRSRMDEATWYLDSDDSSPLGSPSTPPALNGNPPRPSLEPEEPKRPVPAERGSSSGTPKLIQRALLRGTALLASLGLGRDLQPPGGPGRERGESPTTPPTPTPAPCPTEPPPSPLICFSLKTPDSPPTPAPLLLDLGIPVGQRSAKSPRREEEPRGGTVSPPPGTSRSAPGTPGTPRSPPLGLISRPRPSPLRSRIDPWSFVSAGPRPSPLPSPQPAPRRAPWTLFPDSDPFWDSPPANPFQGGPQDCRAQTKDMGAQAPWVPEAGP
Put plainly: Quantitative competitive binding assay (KINOMEscan).

Another experiment addresses SRMS (Homo sapiens, UniProt Q9H3Y6). Further details: method as in Bollag et al., 2010. The settings on record: ref Bollag et al., 2010; read-out: Published biochemical IC50; cited from earlier work.
Experiment [2] deals with phospho-JNK and phospho-p38. Description: Western blot, UV-induced phospho-JNK and phospho-p38 in NHEKs. Type of experiment: cell-based, human. Conditions: NHEK, 1 μM, most significantly at 6 and 24 hr. An excerpt:
We next examined the responses of primary normal human epidermal keratinocytes (NHEKs) to vemurafenib. […] In probing members of the BCL2 family, we found similar results to those in the cSCC and HaCaT cell lines. […] The advantage of using primary cells is that p53 is intact.
Figure 2. […] DOI: http://dx.doi.org/10.7554/eLife.00969.010 [drawing 5]
A general note: Immunoblotting shows a protein as a band on a membrane.

The next experiment deals with T3, TAOK2 (Homo sapiens, UniProt Q9UL54).
T3 construct: purchased KINOMEscan (DiscoveRx), San Diego, CA
T3 sequence (Q9UL54 1-1235): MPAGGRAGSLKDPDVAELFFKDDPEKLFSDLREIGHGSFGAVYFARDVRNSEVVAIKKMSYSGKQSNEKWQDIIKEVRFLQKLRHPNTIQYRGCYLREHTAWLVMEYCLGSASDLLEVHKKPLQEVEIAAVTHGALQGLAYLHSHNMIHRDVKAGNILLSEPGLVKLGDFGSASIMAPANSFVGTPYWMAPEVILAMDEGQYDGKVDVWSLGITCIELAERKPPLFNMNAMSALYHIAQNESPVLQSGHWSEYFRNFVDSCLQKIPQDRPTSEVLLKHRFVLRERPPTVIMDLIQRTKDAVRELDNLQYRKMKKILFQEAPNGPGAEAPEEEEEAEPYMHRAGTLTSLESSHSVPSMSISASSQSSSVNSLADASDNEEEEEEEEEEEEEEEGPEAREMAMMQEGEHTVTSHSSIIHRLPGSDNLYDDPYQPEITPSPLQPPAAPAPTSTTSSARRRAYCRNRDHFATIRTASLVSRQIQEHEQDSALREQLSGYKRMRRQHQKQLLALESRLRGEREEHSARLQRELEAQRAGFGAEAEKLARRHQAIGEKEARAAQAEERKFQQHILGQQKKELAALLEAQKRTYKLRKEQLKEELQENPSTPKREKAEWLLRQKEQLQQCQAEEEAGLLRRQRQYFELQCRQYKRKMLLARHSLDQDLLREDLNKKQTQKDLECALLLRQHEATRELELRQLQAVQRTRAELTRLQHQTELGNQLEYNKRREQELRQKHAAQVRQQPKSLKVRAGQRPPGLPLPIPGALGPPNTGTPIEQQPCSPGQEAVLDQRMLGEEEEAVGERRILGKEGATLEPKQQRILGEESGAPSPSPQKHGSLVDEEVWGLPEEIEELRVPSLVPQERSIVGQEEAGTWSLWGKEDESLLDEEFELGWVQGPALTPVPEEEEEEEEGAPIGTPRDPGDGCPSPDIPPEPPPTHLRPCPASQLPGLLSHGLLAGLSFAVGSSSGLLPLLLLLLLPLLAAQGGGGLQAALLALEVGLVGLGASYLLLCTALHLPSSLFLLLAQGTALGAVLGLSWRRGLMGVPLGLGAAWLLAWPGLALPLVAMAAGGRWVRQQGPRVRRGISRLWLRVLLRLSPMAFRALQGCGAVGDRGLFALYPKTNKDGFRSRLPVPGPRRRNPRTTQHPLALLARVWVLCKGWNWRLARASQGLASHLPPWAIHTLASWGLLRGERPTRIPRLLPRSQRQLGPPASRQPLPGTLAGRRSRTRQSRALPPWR
Also on record: method as in Bollag et al., 2010. Conditions: ref Bollag et al., 2010; read-out: Published biochemical IC50; cited from earlier work.

For the next experiment, the target named is T4, BLK (Homo sapiens, UniProt P51451).
T4 construct: purchased KINOMEscan (DiscoveRx), San Diego, CA
T4 sequence (P51451 whole entry): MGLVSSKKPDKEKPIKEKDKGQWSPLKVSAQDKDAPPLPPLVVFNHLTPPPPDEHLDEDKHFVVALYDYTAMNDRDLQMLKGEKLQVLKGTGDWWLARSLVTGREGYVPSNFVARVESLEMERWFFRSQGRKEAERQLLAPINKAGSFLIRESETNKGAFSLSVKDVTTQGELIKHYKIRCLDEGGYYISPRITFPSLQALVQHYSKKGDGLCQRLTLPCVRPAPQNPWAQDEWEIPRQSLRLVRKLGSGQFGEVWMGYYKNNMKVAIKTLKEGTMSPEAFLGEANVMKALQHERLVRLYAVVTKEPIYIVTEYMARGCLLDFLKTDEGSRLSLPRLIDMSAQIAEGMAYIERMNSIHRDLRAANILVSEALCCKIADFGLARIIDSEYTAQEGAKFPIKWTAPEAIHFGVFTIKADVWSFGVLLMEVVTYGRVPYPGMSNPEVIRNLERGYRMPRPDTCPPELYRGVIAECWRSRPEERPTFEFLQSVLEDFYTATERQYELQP
Also on record: method as in Bollag et al., 2010. The settings on record: ref Bollag et al., 2010; read-out: Published biochemical IC50; cited from earlier work.

In a further experiment the target is T5, FGR (Homo sapiens, UniProt P09769).
T5 construct: purchased KINOMEscan (DiscoveRx), San Diego, CA
T5 sequence (P09769 whole entry): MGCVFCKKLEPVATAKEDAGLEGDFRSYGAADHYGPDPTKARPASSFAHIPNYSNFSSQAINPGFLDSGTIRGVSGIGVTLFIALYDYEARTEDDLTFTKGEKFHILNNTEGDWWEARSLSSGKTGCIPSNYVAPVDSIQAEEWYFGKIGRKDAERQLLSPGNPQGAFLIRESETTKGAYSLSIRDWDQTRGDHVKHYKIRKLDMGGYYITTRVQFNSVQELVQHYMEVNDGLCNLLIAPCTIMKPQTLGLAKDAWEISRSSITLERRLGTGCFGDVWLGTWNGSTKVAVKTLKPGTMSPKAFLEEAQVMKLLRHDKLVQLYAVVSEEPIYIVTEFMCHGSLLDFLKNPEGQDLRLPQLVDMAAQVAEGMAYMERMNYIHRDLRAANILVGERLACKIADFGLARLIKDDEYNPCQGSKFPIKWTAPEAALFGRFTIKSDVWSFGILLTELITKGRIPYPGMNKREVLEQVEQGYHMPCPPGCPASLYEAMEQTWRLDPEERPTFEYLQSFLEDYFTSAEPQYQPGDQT
Further details: method as in Bollag et al., 2010. The settings on record: ref Bollag et al., 2010; read-out: Published biochemical IC50; cited from earlier work.

Another experiment concerns the target T6, human full-length ZAK (Homo sapiens, UniProt Q9NYL2).
T6 construct: In vitro kinase assays were performed using human full-length ZAK; purchased Reaction Biology
Put plainly: In vitro kinase assay (Reaction Biology). The class given is biochemical.

As a reminder, the IC50 is the concentration that inhibits the measured activity by half.

T6 sequence (Q9NYL2 1-455 isoform Q9NYL2-2): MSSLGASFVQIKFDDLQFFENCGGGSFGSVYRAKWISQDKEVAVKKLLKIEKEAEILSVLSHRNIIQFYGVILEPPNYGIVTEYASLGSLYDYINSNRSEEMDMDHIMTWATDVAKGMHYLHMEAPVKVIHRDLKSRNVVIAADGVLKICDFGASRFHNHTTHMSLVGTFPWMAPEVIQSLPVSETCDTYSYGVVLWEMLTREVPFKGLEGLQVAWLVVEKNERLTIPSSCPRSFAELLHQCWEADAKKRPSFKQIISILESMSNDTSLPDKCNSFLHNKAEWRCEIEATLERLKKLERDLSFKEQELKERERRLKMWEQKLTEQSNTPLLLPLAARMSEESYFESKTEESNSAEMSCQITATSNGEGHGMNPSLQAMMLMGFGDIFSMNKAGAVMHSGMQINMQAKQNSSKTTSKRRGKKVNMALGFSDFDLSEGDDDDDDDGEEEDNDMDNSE
Sequence of SRMS (Q9H3Y6 whole entry): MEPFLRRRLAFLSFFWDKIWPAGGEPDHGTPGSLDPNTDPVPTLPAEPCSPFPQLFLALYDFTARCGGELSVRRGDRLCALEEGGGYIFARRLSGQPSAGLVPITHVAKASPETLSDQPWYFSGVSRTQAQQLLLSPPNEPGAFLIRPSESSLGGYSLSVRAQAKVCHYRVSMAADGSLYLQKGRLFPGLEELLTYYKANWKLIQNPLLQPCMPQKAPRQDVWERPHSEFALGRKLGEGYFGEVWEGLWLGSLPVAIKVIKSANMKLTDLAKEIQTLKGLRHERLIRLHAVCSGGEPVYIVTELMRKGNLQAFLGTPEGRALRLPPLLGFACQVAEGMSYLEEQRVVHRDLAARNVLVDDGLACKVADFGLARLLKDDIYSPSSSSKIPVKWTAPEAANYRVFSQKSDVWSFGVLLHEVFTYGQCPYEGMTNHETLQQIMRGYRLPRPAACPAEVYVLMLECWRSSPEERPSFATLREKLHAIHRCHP

`CCCS(=O)(=O)Nc1ccc(F)c(C(=O)c2c[nH]c3ncc(Cl)cc23)c1F` [PLX4720]: in the experiment with Noxa mRNA, the “UV-induced Noxa mRNA expression” value was “significantly dampened”. Moreover, the IC50 on MST1 (STK4) is above 5 µM. In addition, the colony formation result in experiment [1] is on record as “significant colony formation advantage”. The remaining binding at 0.05 µM at MLK3 (MAP3K11) (read-out: Percent control (50 nM)) was 100%. Moreover, the remaining binding at 0.2 µM on MLK3 (MAP3K11) (read-out: Percent control (200 nM)) worked out at 100%. Also, the remaining binding at 1 µM at MLK3 (MAP3K11) (read-out: Percent control (1000 nM)) amounted to 100%. Further, the remaining binding at 10 µM on MLK3 (MAP3K11) (read-out: Percent control (10 μM)) worked out at 100%.

For `CCCS(=O)(=O)Nc1ccc(F)c(C(=O)c2c[nH]c3ncc(-c4ccc(Cl)cc4)cc23)c1F` [vemurafenib], the IC50 at SRMS is 18 nM; on TAOK2, above 1000 nM; on BLK it was 547 nM; at FGR, 63 nM; at human full-length ZAK (MBP substrate, ATP 2.5 μM, read-out: biochemical IC50) it was 187 ± 5 nM. For the same compound, in experiment [2], the “UV-induced upregulation of phospho-JNK and phospho-p38” value is on record as “suppressed”. The remaining activity at 1 µM at human full-length ZAK (at 1 μM, read-out: residual activity) came to 18.9 ± 0.5%.

Values taken from PMC3814616, “BRAF inhibitors suppress apoptosis through off-target inhibition of JNK signaling” (eLife, 2013).
